Measured values: article PMC11928584, “H105A peptide eye drops promote photoreceptor survival in murine and human models of retinal degeneration” (Communications Medicine, 2025)
Values joined by “and” are separate entries in the source; they are usually repeats but may differ in a detail not shown here. Equal entries are not always repeated. Where a SMILES comes first, the peptide text is derived from it.

Columns and labels:
[1] = test system: human iPSC-derived retinal organoids exposed to CSE; assay: TUNEL staining of retinal organoid sections; format: cell-based; conditions: Figure 8f; CSE + peptide; individual values, n=5
Description: Human iPSCs were differentiated into retinal organoids (ROs) following the protocol by Zhong et al.[41]. Briefly, on Day 0, hiPSC colonies were dissociated with dispase and grown in a suspension to form embryoid bodies, and slowly transitioned to neural induction media (DMEM/F12 (1:1), 1% N2 supplement (Invitrogen), 1 x minimum essential media-nonessential amino acids (NEAAs), 2 µg/ml heparin (Sigma)). On Day 7, EBs were seeded on Matrigel coated plates and maintained in neural induction media. On Day 16, the media was switched to the retinal differentiation medium (DMEM/F12 (3:1), 2% B27 (without vitamin A, Invitrogen), 1x NEAA and 1% antibiotic–antimycotic (Gibco)). Retinal domains were identified and lifted manually with tungsten needles between Day 21 and Day 26 under a phase contrast microscope. On day 30, the culture medium was transitioned to DMEM/F12 (3:1) with 2% B27, 1x NEAA, 1% antibiotic–antimycotic, 10% fetal bovine serum (FBS; Gibco), […] Taurine (Sigma), and 2 mM GlutaMAX (Invitrogen). Additionally, 1 µM retinoic acid supplement was introduced daily starting from day 63. On day 91, the medium was modified to DMEM/F12 (1:1) supplemented with 1% N2, 1 x NEAAs, 1% antibiotic–antimycotic, 10% FBS, […] Taurine and 2 mM GlutaMAX, and the concentration of retinoic acid supplementation was reduced to 0.5 µM for the remainder of the culture period. The use of hiPSCs in this study conforms to the University of Colorado Institutional Biosafety Committee standards. […]
D180 ROs were treated with each of the 5 experimental conditions, as described above (n = 5 for each condition), washed with PBS three times, and fixed with 4% paraformaldehyde for 10 min at room temperature. […] Fluorescence images were acquired with a Nikon C2 Confocal Microscope A1 (Minato City, Tokyo, Japan) and stitched together using Nikon Elements Software. Images were analysed with Fiji. The relative area of positive immunostaining was calculated as a percentage of total retinal area. […]

[2] = test system: rod photoreceptor outer segments of RhoP23H/+ mice; assay: OS thickness labelled by rhodopsin, RhoP23H/+ mice; format: in vivo, mouse; conditions: Fig 6e
Description: Eyes from Rho^P23H/+ mice eyes were enucleated and fixed in Davidson’s fix (8% formaldehyde (Merck, cat. F8775), 32% ethanol (Carlo Erba, cat. 414608), 10% acetic acid (Merck, cat. 695092)) over-night. After embedding in paraffin, 14 μm sections were collected. For TUNEL, sections were treated with […] Citrate Buffer pH 6 (10 mM Tri-sodium citrate (Carlo Erba, cat. 368007)), 0.2 mM citric acid (Merck, cat: 251275) in microwave for 5 min, then labeling was performed for one h at 37 °C using the In Situ Cell Death Detection Kit (Merck, cat. 12156792910). Rod photoreceptors were labeled with anti-RHO 1D4 antibody followed by Alexa Fluor 568 anti-mouse secondary antibody. Cone photoreceptors were labeled with anti-Opsin Blue (Merck, cat. AB5407) and anti-Opsin Red/Green (Merck, cat. AB5405). GFP localization in control transduced retinas was identified with specific anti-GFP antibody and Alexa Fluor 488 anti-mouse secondary antibody. Microglial cell labeling was performed using anti-Iba1 antibody (Wako, cat. 019-19741). For nuclear staining, 0.1 μg/ml DAPI was used. Slides were mounted with Mowiol 4–88 (Merck) and images acquired with a Zeiss Axio Imager A2 fluorescence microscope. To count TUNEL positive cells the RETINA Analysis Tool kit for ImageJ was used[37].
Fig. 6 Effects of eye drops containing H105A peptide in the photoreceptors of Rho^P23H/+ mice. a Scheme of experimental design. Daily peptide eye drops (5 µl of 1 mg/ml peptide) were applied to mice starting at P14 until P19 when immunofluorescence of retinal cross sections was performed. The contralateral control eyes were treated with vehicle HBSS. RE and LE refer to the right and left eyes, respectively. b Immunostaining was performed with antibodies against BAX or BCL2 (green), and DAPI (blue). Histograms show quantification of immunofluorescence intensity for BAX and BCL2 markers. […] Each individual data point represents the average of five (n = 5) retinas ± SD, with statistical significance determined between H105A and vehicle by paired t-test (****p < 0.0001). […] Statistical significance between H105A and untreated is indicated by ∗p ≤ 0.05, and ∗∗p ≤ 0.01. […] Presented as average ± SD, with statistics performed using One-way ANOVA Šídák’s multiple comparisons test. ∗p ≤ 0.05

[3] = test system: photoreceptors of RhoP23H/+ mice; assay: ONL thickness (DAPI sections, spider plot), RhoP23H/+ mice; format: in vivo, mouse; conditions: daily eye drops 1 mg/ml P14-P19, P19, ventral retina
Description: After embedding in paraffin, 14 μm sections were collected. […] Cone photoreceptors were labeled with anti-Opsin Blue (Merck, cat. AB5407) and anti-Opsin Red/Green (Merck, cat. AB5405). […] For nuclear staining, 0.1 μg/ml DAPI was used. Slides were mounted with Mowiol 4–88 (Merck) and images acquired with a Zeiss Axio Imager A2 fluorescence microscope. To count TUNEL positive cells the RETINA Analysis Tool kit for ImageJ was used[37].
To generate spider plots, the ONL thickness was measured from images passing through the optic nerve (ON) acquired with light microscopy of the retina sections stained with H&E or images of retina sections stained with DAPI with a dorsal-ventral orientation. The ONL thickness in the entire retina sections was measured at 5 different positions from both sides of the ON using ImageJ[28]. Alternatively, for DAPI stained images, a customed macro implemented in ImageJ was used to select only the ONL.
Fig. 6 Effects of eye drops containing H105A peptide in the photoreceptors of Rho^P23H/+ mice. a Scheme of experimental design. Daily peptide eye drops (5 µl of 1 mg/ml peptide) were applied to mice starting at P14 until P19 when immunofluorescence of retinal cross sections was performed. […] Histograms show quantification of immunofluorescence intensity for BAX and BCL2 markers. Five retinas per group were analyzed, with two sections per retina. […]

For `CC[C@H](C)[C@H](NC(=O)[C@H](CC(C)C)NC(=O)[C@H](CC(=O)O)NC(=O)[C@H](Cc1ccc(O)cc1)NC(=O)[C@H](Cc1ccc(O)cc1)NC(=O)[C@H](CC(C)C)NC(=O)[C@H](C)NC(=O)[C@H](CCCNC(=N)N)NC(=O)[C@H](Cc1c[nH]cn1)NC(=O)[C@@H](NC(=O)[C@@H](NC(=O)[C@H](CO)NC(=O)[C@H](CCC(=O)O)NC(=O)[C@@H](NC(=O)[C@H](C)NC(=O)[C@@H](N)CCC(N)=O)[C@@H](C)O)[C@@H](C)CC)[C@@H](C)CC)C(=O)N[C@@H](CO)C(=O)O` [R99A] (H-QATESIIHRALYYDLIS-OH), the “Relative TUNEL(+) area” value [1] was 4.87 and 4.90 and 3.81 and 6.35 and 6.42.

Molecule `CC[C@H](C)[C@H](NC(=O)[C@H](CC(C)C)NC(=O)[C@H](CC(=O)O)NC(=O)[C@H](Cc1ccc(O)cc1)NC(=O)[C@H](Cc1ccc(O)cc1)NC(=O)[C@H](CC(C)C)NC(=O)[C@H](C)NC(=O)[C@H](CCCNC(=N)N)NC(=O)[C@H](C)NC(=O)[C@@H](NC(=O)[C@@H](NC(=O)[C@H](CO)NC(=O)[C@H](CCC(=O)O)NC(=O)[C@@H](NC(=O)[C@H](CCCNC(=N)N)NC(=O)[C@@H](N)CCC(N)=O)[C@@H](C)O)[C@@H](C)CC)[C@@H](C)CC)C(=O)N[C@@H](CO)C(=O)O` [H105A] (H-QRTESIIARALYYDLIS-OH) has an Outer segments (OS) thickness ([2]; replicate 1 of 9) of 14.6 µm, an Outer segments (OS) thickness ([2]; replicate 2 of 9) of 11.1 µm and an Outer segments (OS) thickness ([2]; replicate 3 of 9) of 16.1 µm. It also gave an Outer segments (OS) thickness ([2]; replicate 4 of 9) of 15.5 µm, an Outer segments (OS) thickness ([2]; replicate 5 of 9) of 14.5 µm and an Outer segments (OS) thickness ([2]; replicate 6 of 9) of 14.6 µm. The Outer segments (OS) thickness ([2]; replicate 7 of 9) was 12.4 µm, the Outer segments (OS) thickness ([2]; replicate 8 of 9) was 20.7 µm and the Outer segments (OS) thickness ([2]; replicate 9 of 9) was 16.5 µm. The “ONL thickness” value [3] was “preservation of ONL thickness”.
